Measurements as given in US20230295088A1, “INSULIN SENSITIZERS FOR THE TREATMENT OF DIABETES MELLITUS” (University of Iowa Research Foundation, priority 2020, published 2023).
Entries after “also recorded” stand apart in the source; their conditions may differ.

Experiments:
[1] = system: GLUT4 translocation in HBG4 mice; assay: In vivo GLUT4 translocation in HBG4 mice (IVIS luminescence); design: species or system mouse; conditions: DIO HBG4 mice treated for 2 weeks, insulin 10 minutes before substrate
Procedure: C3 potentiates insulin action in primary adipocytes and in live mice. Using HBG4 mice, insulin stimulated GLUT4 translocation of endogenous GLUT4 was measured in primary skeletal muscle fibers and primary adipocytes. Enhancement of insulin-stimulated translocation of endogenous GLUT4 was also shown in primary adipocytes in the presence of C3. In parallel dishes, increased insulin-stimulated glucose uptake in HBG4 primary adipocyte treated with C3 was found. […] To determine if the HBG4 mouse can be used to measure GLUT4 translocation in vivo, HBG4 mice were pretreated with daily IP injections of vehicle or 50 mg/Kg C3 for 3 days. On the day of the experiment, mice were injected with vehicle or insulin IP followed by a subcutaneous injection of LgBiT and substrate around the leg muscles. Mice were then anesthetized and placed into an IVIS system to measure luminescence. […] Baseline signal was detected in vehicle and C3 treated HBG4 mice. […]
DIO HBG4 mice were treated with vehicle or C59 for 2 weeks and injected i.v. with an adenovirus coding for a secreted form of LgBiT (allowing LgBiT production and secretion predominantly by the liver into the circulation) 2 days prior to the experiment. Animal were then injected with saline or insulin 10 minutes before i.v. injection of substrate and luminescence imaging using an IVIS system.

[2] = system: lean mice; assay: Glucose tolerance test in lean mice; format: in vivo, mouse; conditions: single injection before GTT
Procedure: C3 improves glucose tolerance in lean and obese insulin resistant mice. To test whether C3 improves glucose handling, lean mice were injected with vehicle or C3 30 minutes before performing a glucose tolerance test. […] To further determine if C3 can reverse glucose intolerance, WT mice were made insulin-resistant by feeding them a high fat diet (HFD) for a period of 10 weeks. Diet induced obese (DIO) mice were then injected with vehicle or C3 for 2 weeks while remaining on HFD. […] Together those results establish in vivo efficacy of C3 for the treatment of insulin resistance.

[3] = molecular target: T1, PPARg (Homo sapiens, UniProt P37231); assay: Luminescent PPARg reporter assay in vitro; format: cell-based
T1 sequence (P37231 1-505): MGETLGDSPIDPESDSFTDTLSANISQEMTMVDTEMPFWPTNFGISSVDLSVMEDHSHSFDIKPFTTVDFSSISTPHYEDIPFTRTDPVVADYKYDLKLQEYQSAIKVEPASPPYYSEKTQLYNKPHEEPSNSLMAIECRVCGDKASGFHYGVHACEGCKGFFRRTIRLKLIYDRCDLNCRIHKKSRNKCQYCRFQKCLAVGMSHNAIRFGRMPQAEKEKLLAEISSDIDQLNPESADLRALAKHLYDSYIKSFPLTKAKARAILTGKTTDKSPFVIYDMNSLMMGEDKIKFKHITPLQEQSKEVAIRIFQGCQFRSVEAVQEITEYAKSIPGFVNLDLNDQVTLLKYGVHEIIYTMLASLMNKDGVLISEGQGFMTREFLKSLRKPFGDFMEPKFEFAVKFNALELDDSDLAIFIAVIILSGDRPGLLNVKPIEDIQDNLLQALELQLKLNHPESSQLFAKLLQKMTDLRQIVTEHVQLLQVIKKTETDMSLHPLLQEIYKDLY
From the text: C3 is not liver toxic and acts through a different mechanism than TZDs. […] Deleterious side effect or TZDs are due to their agonism of PPARg.

[4] = system: GLUT4 expressing tissues of DIO mice; assay: PET/CT measurement of 18F-FDG uptake in DIO mice; format: in vivo, mouse; conditions: HFD supplemented with C59 for two weeks
Procedure: C59 improves glucose uptake in storage tissues of DIO mice. Since insulin resistance results in a failure to transport glucose from the circulation to tissues that can use it as a source of energy or store it, it was tested whether treating insulin resistant DIO mice with C59 results in an increase in glucose uptake in GLUT4 expressing tissues. For this, insulin resistant DIO mice (fed a HFD for 10 weeks) were fed HFD or HFD supplemented with C59 for two weeks before injection of ^18F-FDG and uptake of the radioactive glucose tracer was measured by PET/CT.

[5] = molecular target: T2, Unc119b (Mus musculus, UniProt Q8C4B4); assay: Proteome Integral Solubility Alteration (PISA) assay, Unc119b; format: binding; design: dose or concentration left out as unconfirmed
T2 construct: endogenous in cells
From the text: (§1) Identification of the molecular target of C59. Since the discovery of C59 as an insulin sensitizer was achieved using a phenotypic screen, the molecular target of the compound was unknown. To identify the target, a Proteome Integral Solubility Alteration (PISA) assay was used. […] To measure the shift in thermal stability, constructs coding for Unc119-HiBiT and Unc119b-HiBit were generated, thus allowing the quantitative detection of those proteins by adding LgBiT and furimazin to the lysates and measuring luminescence. Crude extract from cells transfected with Unc119-HiBiT or Unc119b-HiBiT, were incubated with DMSO or C59 for 10 minutes, aliquoted, heated for 3 minutes at the indicated temperature and allowed to cool down to room temperature before adding LgBiT and furimazin and reading luminescence on a plate reader.

[6] = molecular target: T3, Unc119 (Homo sapiens, UniProt Q13432); assay: Luminescence complementation based thermal shift assay, Unc119-HiBiT; format: binding; conditions: crude extract of Unc119-HiBiT transfected cells, 10 minutes incubation, heated 3 minutes
T3 construct: expressed in transfected cells
From the text: as §1

[7] = molecular target: T4, Unc119b (Homo sapiens, UniProt A6NIH7); assay: Luminescence complementation based thermal shift assay, Unc119b-HiBiT; format: binding; conditions: crude extract of Unc119b-HiBiT transfected cells, 10 minutes incubation, heated 3 minutes
T4 construct: expressed in transfected cells
From the text: as §1

[8] = system: Unc119b KO HBG4 cells; assay: Insulin-stimulated GLUT4 translocation in Unc119b KO HBG4 cells; format: cell-based, mouse
Procedure: Unc119 and Unc119b are important for the insulin sensitizing effect of C59. After identifying Unc119 proteins as molecular targets for C59, it was tested whether those proteins were responsible for the insulin sensitizing activity of C59. To this end Unc119 and Unc119b KO HBG4 cells were generated using CRISPR/Cas9 technology. For each of those cell lines two gRNA surrounding the start codon were used, thus resulting in a deletion of a fragment of the Unc119 genes that includes the ATG. Deletion of Unc119 and Unc119b in clonal cell lines were screened and verified by PCR (FIG. 4E). The effect of C59 on insulin-stimulated. […] To further test this finding, 3H-Deoxy-D-Glucose uptake in WT, Unc119 KO and Unc119b KO HBG4 cells treated with vehicle, insulin, C59 alone and C59 with insulin was measured.

T2 sequence (Q8C4B4 whole entry): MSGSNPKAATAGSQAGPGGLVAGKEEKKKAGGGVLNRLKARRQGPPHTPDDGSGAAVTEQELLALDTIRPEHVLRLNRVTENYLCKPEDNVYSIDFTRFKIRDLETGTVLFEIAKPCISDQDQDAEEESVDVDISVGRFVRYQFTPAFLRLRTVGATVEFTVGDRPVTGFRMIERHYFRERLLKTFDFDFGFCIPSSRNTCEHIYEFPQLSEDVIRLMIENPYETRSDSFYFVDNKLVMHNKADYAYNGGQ
T4 sequence (A6NIH7 whole entry, species assumed): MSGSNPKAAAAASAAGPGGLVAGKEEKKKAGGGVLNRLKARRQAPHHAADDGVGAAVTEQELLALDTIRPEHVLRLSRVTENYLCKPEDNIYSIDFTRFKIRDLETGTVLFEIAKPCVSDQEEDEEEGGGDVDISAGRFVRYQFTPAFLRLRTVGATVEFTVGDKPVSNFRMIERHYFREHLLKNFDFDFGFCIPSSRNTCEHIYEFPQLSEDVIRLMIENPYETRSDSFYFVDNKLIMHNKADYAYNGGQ

thermostability of Unc119b (PISA) ([5]; lysates (crude extract)): increased the thermostability
thermostability shift for Unc119 [6]: 6.6 C.
thermostability shift for Unc119b [7]: 6.7 C.
SMILES: O=C(Nc1ccc(Cl)c(Cl)c1)C12CC3CC(CC(C3)C1)C2 [Compound C59]
insulin-stimulated GLUT4 translocation in vivo [1]: very significantly improved
glucose clearance in glucose tolerance test [2]: improvement
PPARg agonist activity [3]: neither C3 nor C59 have PPARγ agonist activity
18F-FDG uptake in BAT [4]: significantly increased
18F-FDG uptake in WAT [4]: significantly increased
18F-FDG uptake in heart tissues [4]: significantly increased
18F-FDG uptake in skeletal muscles [4]: significantly increased
thermostability of Unc119b (PISA) ([5]; live cells, vs DMSO and C29): increased the thermostability; also recorded: concentration dependent increased thermostability
insulin-stimulated GLUT4 translocation [8]: failed to enhance
